Test results published in US20050058600A1, “3,3'-Diindolylmethane antiandrogenic compositions” (priority 2003, published 2005).

Legend:
[1] = test system: dimethylbenzanthracene (DMBA)-induced mammary tumors; settings: rats; cited from earlier work
[2] = test system: benzo(a)pyrene (BP)-induced tumors of the forestomach; settings: mice; cited from earlier work
[3] = test system: BP-induced pulmonary adenomas; settings: mice; cited from earlier work
breast cancer cells = settings: in culture; cited from earlier work
prostate cancer cells = settings: cited from earlier work
[4] = test system: skin surrounding the flank organ of the male Syrian hamster; test: Androgen-induced delay of hair growth in the Golden Syrian hamster; format: in vivo
Description: Mature male golden Syrian hamsters, 101-110 g, are obtained from Charles River Laboratories (Wilmington, Mass.). Pellet implant and blood drawing procedures are performed while animals are under general anaesthesia induced by isoflurane (Aerrane®, Fort Dodge Animal Health, Overland Park, Kans.). Testosterone propionate (TP) is administered in the form of 25 mg dose time-release pellets (Inovative Research of America, Toledo, Ohio). Antiandrogenic DIM derivatives (Example II, supra) are coadministered in parallel 25 mg dose time-release pellets. Control animals receive placebo pellets, which contain only carrier/binder excipients (cholesterol, lactose, celluloses, phosphates, and stearates).
Pellets are implanted subcutaneously. A skin incision is made with scissors on the upper dorsal side of the animal, equal in length to the pellet. A horizontal pocket is created with forceps about 2 cm beyond the incision site. Pellets are placed in the pocket with forceps, and incisions are then closed with a staple suture (Autoclip®, 9 mm, Stoelting Co., Wood Dale, Ill.). Immediately after pellet implantation, the fur on and around each flank organ is shaved with electric clippers. This is designated day 0 of the study. At day 7, the fur around the flank organ is re-clipped. […] On day 21 the surface diameters of the left and right flank organs (encompassed within the pigmented area) are measured with vernier callipers. […]
Sebaceous glands are evaluated in unstained whole mounts of ventral dermal sheets from the left ears. […] The gland areas are measured using an Optomax V image analysis system (Optomax, Hollis, N.H.). The percentage change in sebaceous gland size is calculated by comparing the testosterone-treated group with the placebo-treated group. Serum testosterone is measured by radioimmunoassay at an outside laboratory (AniLytics, Inc., Gaithersburg, Md.).
Hair growth is quantified using a visual grading system (0-3 scale, where 0=no growth, 3=full hair growth). […]

Row | SMILES | incidence of DMBA-induced mammary tumors [1] | incidence of BP-induced tumors of the forestomach [2] | incidence of BP-induced pulmonary adenomas [3] | proliferation of breast cancer cells (breast cancer cells) | proliferation of prostate cancer cells (prostate cancer cells) | size of the flank organ and the ear sebaceous glands ([4]; 25 mg TP dose, after 21 days) | hair growth grade (0-3 scale) ([4]; TP alone, day 14) | hair growth ([4]; TP alone, day 21)
1 | OCc1c[nH]c2ccccc12 [I3C, indole-3-carbinol, reference compound] | reduced the incidence | reduced the incidence | reduced the incidence | inhibit proliferation | inhibit proliferation | – | – | –
2 | CCC(=O)O[C@H]1CC[C@H]2[C@@H]3CCC4=CC(=O)CC[C@]4(C)[C@H]3CC[C@]12C [TP, Testosterone propionate] | – | – | – | – | – | marked increase | 0 | insignificant
